In US12617779B2, “Self degradation-type CDK9 inhibitor prodrug and liposome encapsulating same” (Sumitomo Pharma Co., Ltd., priority 2021, dated 2026):

Experiment: Evaluation of conversion rate to active form in buffer solution (Experimental Example 1)
Assay type: physicochemical
Conditions: for Production rate of Alvocidib / Residual rate: 37° C., 25 umol/L in buffer solution; for Stability in buffer solution at pH 5: pH 5, 37° C., up to 2 or 3 hours; for Conversion to Alvocidib at pH 7.4: pH 7.4, 37° C., up to 3 hours
In short: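 Conversion to Alvocidib was followed by HPLC over 3 hours at 37° C, with test compounds at 25 umol/L in 50 mM citrate or phosphate buffers spanning pH 5.0–7.4.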

CN1CC[C@H](c2c(OC(=O)N(CCF)CC3CCCCN3)cc(O)c3c(=O)cc(-c4ccccc4Cl)oc23)[C@H](O)C1 (stereo partly drawn) [Example 11, 2-(2-chlorophenyl)-5-hydroxy-8-[(3S,4R)-3-hydroxy-1-methylpiperidin-4-yl]-4-oxo-4H-1-benzopyran-7-yl (2-fluoroethyl) [(piperidin-2-yl)methyl]carbamate]
Production rate of Alvocidib (pH5.0, 0 hr): 0.2% | Residual rate (pH5.0, 0 hr): 83.2% | Stability in buffer solution at pH 5: stable | Production rate of Alvocidib (pH5.0, 0.5 hr): 0.9% | Residual rate (pH5.0, 0.5 hr): 82.7% | Production rate of Alvocidib (pH5.0, 1 hr): 1.8% | Residual rate (pH5.0, 1 hr): 81.3% | Production rate of Alvocidib (pH5.0, 2 hr): 3.3% | Residual rate (pH5.0, 2 hr): 80.5% | Production rate of Alvocidib (pH5.0, 3 hr): 4.8% | Residual rate (pH5.0, 3 hr): 79.1% | Production rate of Alvocidib (pH5.5, 0 hr): 0.2% | Residual rate (pH5.5, 0 hr): 83.6% | Production rate of Alvocidib (pH5.5, 0.5 hr): 2.5% | Residual rate (pH5.5, 0.5 hr): 81.8% | Production rate of Alvocidib (pH5.5, 1 hr): 4.8% | Residual rate (pH5.5, 1 hr): 79.2% | Production rate of Alvocidib (pH5.5, 2 hr): 9.4% | Residual rate (pH5.5, 2 hr): 75.0% | Production rate of Alvocidib (pH5.5, 3 hr): 14.0% | Residual rate (pH5.5, 3 hr): 70.2% | Production rate of Alvocidib (pH6.0, 0 hr): 0.3% | Residual rate (pH6.0, 0 hr): 83.7% | Production rate of Alvocidib (pH6.0, 0.5 hr): 8.5% | Residual rate (pH6.0, 0.5 hr): 76.0% | Production rate of Alvocidib (pH6.0, 1 hr): 16.9% | Residual rate (pH6.0, 1 hr): 66.6% | Production rate of Alvocidib (pH6.0, 2 hr): 32.6% | Residual rate (pH6.0, 2 hr): 49.8% | Production rate of Alvocidib (pH6.0, 3 hr): 39.4% | Residual rate (pH6.0, 3 hr): 44.8% | Production rate of Alvocidib (pH6.5, 0 hr): 0.8% | Residual rate (pH6.5, 0 hr): 81.4% | Production rate of Alvocidib (pH6.5, 0.5 hr): 23.6% | Residual rate (pH6.5, 0.5 hr): 60.4% | Production rate of Alvocidib (pH6.5, 1 hr): 46.5% | Residual rate (pH6.5, 1 hr): 35.6% | Production rate of Alvocidib (pH6.5, 2 hr): 60.2% | Residual rate (pH6.5, 2 hr): 23.7% | Production rate of Alvocidib (pH6.5, 3 hr): 62.7% | Residual rate (pH6.5, 3 hr): 21.4% | Production rate of Alvocidib (pH7.0, 0 hr): 2.1% | Residual rate (pH7.0, 0 hr): 80.0% | Production rate of Alvocidib (pH7.0, 0.5 hr): 53.4% | Residual rate (pH7.0, 0.5 hr): 30.1% | Production rate of Alvocidib (pH7.0, 1 hr): 62.1% | Residual rate (pH7.0, 1 hr): 22.0% | Production rate of Alvocidib (pH7.0, 2 hr): 67.0% | Residual rate (pH7.0, 2 hr): 17.1% | Production rate of Alvocidib (pH7.0, 3 hr): 71.6% | Residual rate (pH7.0, 3 hr): 12.4% | Production rate of Alvocidib (pH7.4, 0 hr): 4.6% | Residual rate (pH7.4, 0 hr): 79.7% | Conversion to Alvocidib at pH 7.4: rapidly converted to Alvocidib | Production rate of Alvocidib (pH7.4, 0.5 hr): 68.3% | Residual rate (pH7.4, 0.5 hr): 16.2% | Production rate of Alvocidib (pH7.4, 1 hr): 67.0% | Residual rate (pH7.4, 1 hr): 16.7% | Production rate of Alvocidib (pH7.4, 2 hr): 67.9% | Residual rate (pH7.4, 2 hr): 16.2% | Production rate of Alvocidib (pH7.4, 3 hr): 67.3% | Residual rate (pH7.4, 3 hr): 15.9%

COCCN(CC1CCCCN1)C(=O)Oc1cc(O)c2c(=O)cc(-c3ccccc3Cl)oc2c1[C@H]1CCN(C)C[C@H]1O (stereo partly drawn) [Example 12, 2-(2-chlorophenyl)-5-hydroxy-8-[(3S,4R)-3-hydroxy-1-methylpiperidin-4-yl]-4-oxo-4H-1-benzopyran-7-yl (2-methoxyethyl) [(piperidin-2-yl)methyl]carbamate]
Production rate of Alvocidib (pH5.0, 0 hr): 0.5% | Residual rate (pH5.0, 0 hr): 80.7% | Stability in buffer solution at pH 5: stable | Production rate of Alvocidib (pH5.0, 0.5 hr): 1.1% | Residual rate (pH5.0, 0.5 hr): 80.3% | Production rate of Alvocidib (pH5.0, 1 hr): 1.5% | Residual rate (pH5.0, 1 hr): 79.6% | Production rate of Alvocidib (pH5.0, 2 hr): 2.3% | Residual rate (pH5.0, 2 hr): 79.6% | Production rate of Alvocidib (pH5.0, 3 hr): 3.9% | Residual rate (pH5.0, 3 hr): 77.3% | Production rate of Alvocidib (pH5.5, 0 hr): 0.5% | Residual rate (pH5.5, 0 hr): 80.6% | Production rate of Alvocidib (pH5.5, 0.5 hr): 1.9% | Residual rate (pH5.5, 0.5 hr): 79.9% | Production rate of Alvocidib (pH5.5, 1 hr): 3.8% | Residual rate (pH5.5, 1 hr): 77.5% | Production rate of Alvocidib (pH5.5, 2 hr): 6.9% | Residual rate (pH5.5, 2 hr): 73.8% | Production rate of Alvocidib (pH5.5, 3 hr): 9.8% | Residual rate (pH5.5, 3 hr): 71.2% | Production rate of Alvocidib (pH6.0, 0 hr): 0.6% | Residual rate (pH6.0, 0 hr): 80.8% | Production rate of Alvocidib (pH6.0, 0.5 hr): 6.2% | Residual rate (pH6.0, 0.5 hr): 75.4% | Production rate of Alvocidib (pH6.0, 1 hr): 11.0% | Residual rate (pH6.0, 1 hr): 70.3% | Production rate of Alvocidib (pH6.0, 2 hr): 22.5% | Residual rate (pH6.0, 2 hr): 56.2% | Production rate of Alvocidib (pH6.0, 3 hr): 26.9% | Residual rate (pH6.0, 3 hr): 54.0% | Production rate of Alvocidib (pH6.5, 0 hr): 1.0% | Residual rate (pH6.5, 0 hr): 80.4% | Production rate of Alvocidib (pH6.5, 0.5 hr): 16.6% | Residual rate (pH6.5, 0.5 hr): 63.8% | Production rate of Alvocidib (pH6.5, 1 hr): 31.8% | Residual rate (pH6.5, 1 hr): 39.4% | Production rate of Alvocidib (pH6.5, 2 hr): 40.5% | Residual rate (pH6.5, 2 hr): 26.2% | Production rate of Alvocidib (pH6.5, 3 hr): 52.2% | Residual rate (pH6.5, 3 hr): 13.4% | Production rate of Alvocidib (pH7.0, 0 hr): 1.7% | Residual rate (pH7.0, 0 hr): 80.2% | Production rate of Alvocidib (pH7.0, 0.5 hr): 33.8% | Residual rate (pH7.0, 0.5 hr): 35.8% | Production rate of Alvocidib (pH7.0, 1 hr): 51.2% | Residual rate (pH7.0, 1 hr): 15.4% | Production rate of Alvocidib (pH7.0, 2 hr): 60.2% | Residual rate (pH7.0, 2 hr): 0.0% | Production rate of Alvocidib (pH7.0, 3 hr): 62.7% | Residual rate (pH7.0, 3 hr): 0.0% | Production rate of Alvocidib (pH7.4, 0 hr): 3.9% | Residual rate (pH7.4, 0 hr): 77.3% | Conversion to Alvocidib at pH 7.4: rapidly converted to Alvocidib | Production rate of Alvocidib (pH7.4, 0.5 hr): 51.0% | Residual rate (pH7.4, 0.5 hr): 10.8% | Production rate of Alvocidib (pH7.4, 1 hr): 65.9% | Residual rate (pH7.4, 1 hr): 0.0% | Production rate of Alvocidib (pH7.4, 2 hr): 67.3% | Residual rate (pH7.4, 2 hr): 0.0% | Production rate of Alvocidib (pH7.4, 3 hr): 63.6% | Residual rate (pH7.4, 3 hr): 0.0%
